Assay results taken from patent US9452185B2, “Mesenchymal stem cells and supports for tissue regeneration, repair and reconstruction” (THE TEXAS A&M UNIVERSITY SYSTEM, priority 2009, dated 2016).
“Also recorded” adds a separate entry of the source.

Assays:
Type in all cases: cell-based, human
osteoprotegerin (OPG) = test: OPG secretion by ELISA; details: 7AIPM in osteogenic culture
Experimental: (§1) ELISAs. ELISA for CXCL6, Dkk-1, GROa, GRO13, and OPG were carried out by using nonbiotinylated polyclonal capture antibodies and biotinylated detection antibodies that were commercially acquired on coated 96-well plates The biotinylated […] antibodies were detected by using horseradish peroxidase-conjugated streptavidin and TMB substrate. ELISA for IL-lb were performed by using commercially acquired kits. In order to characterize the influence of 7AIPM on osteogenic differentiation, hMSC's from two donors were cultured as described elsewhere herein with the addition of varying concentrations of the compound or vehicle to the media. Samples of the media were collected daily for analysis. These samples were analyzed for the presence of OPG and Dkk-1 using ELISA. Alkaline phosphatase activity of the monolayers and cell numbers were measured using a spectrophotometer.

Dkk-1 = Dkk-1 secretion by ELISA; details: 7AIPM in osteogenic culture
Experimental: as §1

hMSCs = test: Alkaline phosphatase (ALP) activity of hMSCs in osteogenic media
Experimental: For non-mineralizing osteogenic differentiation, hMSCs were plated in 12-well plates at 100 cells cm^−2. Upon reaching about 70% confluency, the media was changed to osteogenic base media (OBM) containing 50 μg mL^−1 ascorbic acid and 5 mM β-glycerol phosphate and either GW9662 or DMSO. Media was changed every 2 days for 8-10 days following measurement of ALP activity. For this purpose, the monolayer was washed with PBS and then with ALP reaction buffer (100 mM Tris-HCl, pH 9, containing 100 mM KCl and 1 mM MgCl2). One half mL of ALP buffer then 0.5 mL p-nitrophenol phosphate (PNPP) was rapidly added to the wells. ALP activity was measured as the rate of PNPP conversion to p-nitrophenolate by monitoring the absorbance at 405 nm every 30 seconds for 9 minutes using a plate reader. The rates were normalized against cell number and statistically analyzed using one-way analysis of variance (ANOVA) and Tukey post test for multiple comparisons or by Student's t-test, for single, unrelated comparisons.
Early osteogenic differentiation and alkaline phosphatase assays. MSCs were plated in 6-well plates at an initial plating density of 100 cells per cm^2 and cultured in standard complete media for 6 days until semi-confluence (approximately 5,000 cells per cm^2). Osteogenic base media consisting of complete media containing 5 mM β-GP and 50 μg mL^−1 ascorbate-2-phosphate and the appropriate inhibitor or vehicle was then used to induce early osteogenic differentiation. Assays were allowed to proceed for 8-10 days with changes of media every 2 days. ALP assays were performed as previously described (Gunn et al., 2006, Stem Cells 24:986-991).
In order to characterize the influence of 7AIPM on osteogenic differentiation, hMSC's from two donors were cultured as described elsewhere herein with the addition of varying concentrations of the compound or vehicle to the media. Samples of the media were collected daily for analysis. These samples were analyzed for the presence of OPG and Dkk-1 using ELISA. Alkaline phosphatase activity of the monolayers and cell numbers were measured using a spectrophotometer.

Substance | OPG concentration (osteoprotegerin (OPG)) | Dkk-1 concentration (Dkk-1) | ALP activity (hMSCs; MSC monolayers, osteogenic medium with increasing doses, four days) | ALP activity (hMSCs; osteogenic media without dexamethasone, 8 days)
7-azaindolyl-pyrazinylmaleimide [7AIPM] | increased | decrease | increased; also recorded: biphasic dose dependant effect | 
Dldc-1: Wnt inhibitor added to block canonical Wnt signaling |  |  |  | attenuated
